# Source: patent US5972956A, “Inhibition of amyloidosis by 9-acridinones” (Warner-Lambert Company, priority 1998, dated 1999)
# pIC50: −log10 of the molar value.
# Target: T1, beta amyloid peptide (1-40) (Homo sapiens, UniProt P05067)
# T1 construct: beta amyloid peptide (1-40)
# Experiment: in vitro amyloid aggregation assay (filtration of I125-labeled peptide aggregates)
# Format: biochemical
# Conditions: beta amyloid peptide (1-40) with I125 labeled peptide, sodium phosphate buffer pH 6.0, 2 hours at room temperature; read-out: IC50, concentration required to cause a 50% inhibition of amyloid aggregation
# Method: The ability of the 9-acridinone compounds of the above formula to inhibit amyloid aggregation has been established in a standard in vitro assay. The assay is carried out by mixing beta amyloid peptide (1-40) with radioiodinated (I^125) labeled peptide to a concentration of 2.5 mg/mL in hexafluoroisopropanol. The mixture is diluted 1 to 5 with water (v/v). […] of the solution is mixed with 25 μL of 25 mM sodium phosphate buffer pH 6.0. The mixture is allowed to aggregate for 2 hours at room temperature with and without a test compound present. The mixtures are then diluted to 235 μL with phosphate buffer to stop the aggregation process. The solutions are passed through a 0.2-μm millipore filtermat. Aggregated protein remains in the filter well. The filter plate is washed with 50 μL of phosphate buffer and then soaked in solid gel scintillant and counted on a Microbeta counter to determine the amount of aggregation in the presence of a test compound versus control with no test compound.
# Several representative 9-acridinone compounds have been evaluated in the above assay and shown to inhibit amyloid aggregation. The following table presents the activity of selected compounds, reported as the molar concentration of compounds required to cause a 50% inhibition (IC50) of amyloid aggregation in the above assay.
# T1 sequence (P05067 672-711 limits assumed): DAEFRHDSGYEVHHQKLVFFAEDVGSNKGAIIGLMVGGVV
row,Compound,pIC50
1,CCOc1ccc2[nH]c3c([N+](=O)[O-])ccc(NC(C)CN(C)C)c3c(=O)c2c1 (stereo not shown) [compound 13],4.61
2,CCN(CC)CCNc1ccc([N+](=O)[O-])c2[nH]c3ccc(OCCN(CC)CC)cc3c(=O)c12 [compound 7],4.45
3,CCN(CC)CCNc1ccc([N+](=O)[O-])c2[nH]c3cc(Cl)c(OC)cc3c(=O)c12 [compound 6],4.73
4,CCCCOc1ccc2[nH]c3c([N+](=O)[O-])ccc(NCCN(C)C)c3c(=O)c2c1 [compound 4],4.60
5,CCN(CC)CCNc1ccc([N+](=O)[O-])c2c1c(=O)c1cc(OC)ccc1n2C [compound 12],4.63
6,CSc1ccc2[nH]c3c([N+](=O)[O-])ccc(NCCCN(C)C)c3c(=O)c2c1 [compound 1],5.15
7,CCN(CC)CCNc1ccc([N+](=O)[O-])c2[nH]c3ccc(SC)cc3c(=O)c12 [compound 2],5.05
8,CCN(CC)CCNc1ccc([N+](=O)[O-])c2[nH]c3ccc(O)cc3c(=O)c12 [Compound No. 9],4.69
9,CCN(CC)CCNc1ccc([N+](=O)[O-])c2[nH]c3ccc(OC)cc3c(=O)c12 [compound 10],4.86
10,CCN(CC)CCNc1ccc([N+](=O)[O-])c2[nH]c3cc(OC)c(OC)cc3c(=O)c12 [compound 3],4.96
11,CCN(CC)CCNc1ccc([N+](=O)[O-])c2[nH]c3ccccc3c(=O)c12 [compound 11],4.53
12,CCN(CC)CCCNc1ccc([N+](=O)[O-])c2[nH]c3ccc(OC)cc3c(=O)c12 [compound 5],4.68
13,CCOc1ccc2[nH]c3c([N+](=O)[O-])ccc(NCCN(CCO)CCO)c3c(=O)c2c1 [compound 8],4.70
